What was measured:
[1] = system: dynamin 2; settings: dynamin 2 inhibitor, value stated in the list of known inhibitors; cited from earlier work
[2] = system: mitochondrial division; settings: mitochondrial division inhibitor; cited from earlier work
[3] = system: Mtm1^-/y mice; test: Disease Severity Score (DSS) in Mtm1-/y mice; assay type: in vivo; settings: at 12 weeks old, score 0 (no disease) to 5 (most severe), ASO 3 mg/kg i.p. weekly, tamoxifen 10 mg/kg of diet
Method: (§1) For experiments in mice, the ASOs were injected intraperitonally (i.p.) weekly from 4 weeks to 12 weeks of age at 3 mg/kg.
(§2) For experiments in mice, pellets of diet were supplemented with tamoxifen citrate (SAFE; […]) to achieve 10 mg of tamoxifen free base per kg of chow. Pellets of diet devoid of tamoxifen were used as a control (to be administered with ASO-ctrl).
(§3) Mtm1 deficient mice in the 129Pas genetic background were obtained from Dr. Laporte (IGBMC, Illkirch, France). Wild type males were bred with Mtm1^+/- heterozygous females. The Mtm1^+/y (wild type, i.e. WT) and Mtm1^-/y (mutant) males in the progeny were used in the experiments. The Mtm1^-/y knock-out mice reproduce the hallmarks of XL-CNM patients such as abnormal position of the organelles, defects in the localization of the nuclei and muscle atrophy, associated with progressive muscle weakness including respiratory weakness, leading to death between 6 and 14 weeks of age (Buj-Bello et al., Proc Natl Acad Sci USA, 2002; 99: 15060-15065; Al-Qusairi,et al, Proc Natl Acad Sci USA, 2009; 106: 18763-18768).
(§4) Weekly i.p. injections of 3 mg/kg of antisense were performed in the Mtm1^+/y and Mtm1^-/y mice, from 4 to 12 weeks of age. […]
Disease Severity Score was calculated to monitor the clinical appearance of mice (n = 10 per group). […]

[4] = system: Mtm1^-/y mice; test: Body weight of Mtm1-/y mice; assay type: in vivo; settings: at 12 weeks, mean ± SD, ASO 3 mg/kg i.p. weekly, tamoxifen 10 mg/kg of diet
Method: as §1, §2, §3
Weekly i.p. injections of 3 mg/kg of antisense were performed in the Mtm1^+/y and Mtm1^-/y mice, from 4 to 12 weeks of age. Alongside these injections, mice were fed pellets of diets containing tamoxifen citrate (10 mg/kg) or devoid of tamoxifen. […]

[5] = system: Mtm1^-/y mice; test: Lifespan / survival of Mtm1-/y mice (XL-CNM model); assay type: in vivo; settings: at the end of the study (12 weeks old), ASO 3 mg/kg i.p. weekly from 4 weeks, tamoxifen 10 mg/kg of diet
Method: as §1, §2, §3
Animals were followed for up to 12 weeks old, with weekly recordings of clinical signs and survival. Treatments were started when disease started to manifest, i.e. at 4 weeks of age.
as §4

[6] = system: DNM2; test: DNM2 protein expression by Western blot in C2C12 cells; assay type: cell-based, mouse; settings: C2C12 cells, 5, 10 or 20 µM (with PBS control, or with ASO-ctrl)
Method: For experiments in mouse immortalized myoblasts (C2C12 cells), the ASOs were electroporated at 2 μM in 2 mm cuvettes, at 150V for 5 ms (one pulse) for 2 million cells in a volume of 400 μl PBS, or in 4mm cuvettes, at [MUT] for 5 ms (one pulse) for 4 million cells in a volume of 800 μl PBS. […] The [MUT] immortalized myoblast cells were cultured in DMEM with 1g/l glucose (Gibco) with 20% FBS (Gibco) + 40 μg/ml Gentamycin (Gibco). The cells were electroporated with either PBS, ASO-ctrl or ASO-Dnm2 at 2 μM, and/or treated with 4-OH-tamoxifen at 20 μM in the cell culture medium, as described in 1.1. The experiment was done in duplicate wells, in 6-well plates. After 24 hrs of treatment, cells were collected and either RNA was extracted for RT-qPCR or protein was extracted for Western Blot. Myoblast C2C12 cells, treated with either (i) PBS + Tamoxifen (20 μM), (ii) ASO ctrl (2 μM), (iii) ASO ctrl (2 μM) + Tamoxifen (20 μM), (iv) ASO-Dnm2 (2 μM) or (v) ASO-Dnm2 (2 μM) + Tamoxifen (20 μM), were lysed in RIPA buffer (Thermo Scientific) supplemented with Halt protease inhibitor cocktail (Thermo Scientific). Protein concentration was determined with the BioRad DC protein Assay kit. Samples were diluted in RIPA buffer, NuPAGE LDS sample buffer and NuPAGE Sample Reducing Agent and denaturated at 70°C for 10 min. […]

[7] = system: Dnm2 mRNA; test: Dnm2 mRNA expression by RT-qPCR in C2C12 cells; assay type: cell-based; settings: C2C12 mouse myoblast cells, 24 hrs, 20 µM (with PBS control, or with ASO-ctrl)
Method: For experiments in mouse immortalized myoblasts (C2C12 cells), the ASOs were electroporated at 2 µM in 2 mm cuvettes, at 150V for 5 ms (one pulse) for 2 million cells in a volume of 400 µl PBS, or in 4mm cuvettes, at 300V for 5 ms (one pulse) for 4 million cells in a volume of 800 µl PBS. Table 2. Antisense oligonucleotides
For experiments conducted in mouse immortalized myoblasts (C2C12 cells), 4-hydroxytamoxifen (5 mg/ml solution, Sigma #SML-1666) was used. The stock solution at 13mM in ethanol:isopropanol (95:5) was diluted in cell culture medium to obtain a working concentration of 20 µM. For vehicle control cells (no treatment), ethanol:isopropanol (95:5) was added to the cell culture medium.
The […] immortalized myoblast cells were cultured in DMEM with 1g/l glucose (Gibco) with 20% FBS (Gibco) + 40 µg/ml Gentamycin (Gibco). The cells were electroporated with either PBS, ASO-ctrl or ASO-Dnm2 at 2 µM, and/or treated with 4-OH-tamoxifen at 20 µM in the cell culture medium, as described in 1.1. The experiment was done in duplicate wells, in 6-well plates. After 24 hrs of treatment, cells were collected and either RNA was extracted for RT-qPCR or protein was extracted for Western Blot. […]

[8] = system: Mtm1^-/y mice; test: Hanging test (whole-body strength) in Mtm1-/y mice; assay type: in vivo; settings: at 12 weeks of age, mean ± SD, cut-off 60 seconds, ASO 3 mg/kg i.p. weekly, tamoxifen 10 mg/kg of diet
Method: as §1, §2
as §3, with “18763-18768). […]” for “18763-18768).”
Whole-body strength of mice was evaluated using the hanging test. […] The latency time for the mouse to fall in the cage was measured, with a cut-off time of 60 seconds. […] The maximum hanging time was recorded. […]

## O=C(NN=Cc1cc(O)c(O)cc1O)c1cc2ccccc2cc1O [hydroxy-Dynasore, 3-hydroxy-N'-[(2,4,5-trihydroxyphenyl)methylidene]naphthalene-2-carbohydrazide]
[1]
  IC50: 2.6 µM

## COc1cc(-n2c(S)nc3ccccc3c2=O)c(Cl)cc1Cl [m-divi 1, 3-(2,4-Dichloro-5-methoxyphenyl)-2-sulfanylquinazolin-4(3H)-one]
[2]
  IC50: 10 µM

## CC/C(=C(\c1ccccc1)c1ccc(OCCN(C)C)cc1)c1ccccc1 [tamoxifen, 2-[4-[(Z)-1,2-diphenylbut-1-enyl]phenoxy]-N,N-dimethylethanamine]
[3]
  Disease Severity Score (DSS), mean score: 3.3
[4]
  body weight: 15.3 ± 0.4 g
[5]
  survival rate: 70%
[6]
  DNM2 protein expression: did not reduce
[7]
  Dnm2 mRNA expression: did not reduce
[8]
  holding time (hanging test): 35.3 ± 24.4 s
